Like-named read-outs stand apart in the source and are kept apart here.
Tests used:
Electric eel AChE = biological target: T1, Electric eel AChE (Electrophorus electricus, UniProt O42275); assay: Ellman assay, […] nm; assay type: biochemical
T1 construct: native commercial enzyme from Sigma, no further details

Human Serum AChE = system: T2, Human Serum AChE; assay: Ellman assay, […] nm; assay type: biochemical; settings: acetylthiocholine iodide substrate, phosphate buffer pH 8.0, 37 °C, 10 min preincubation
T2 construct: crude supernatant of citrated fresh blood (plasma), not purified

[1] = acetylthiocholine iodide substrate, phosphate buffer pH 8.0, 37 °C, 10 min preincubation; read-out: Electric eel AChE, IC50 nM

T1 sequence (O42275 24-633): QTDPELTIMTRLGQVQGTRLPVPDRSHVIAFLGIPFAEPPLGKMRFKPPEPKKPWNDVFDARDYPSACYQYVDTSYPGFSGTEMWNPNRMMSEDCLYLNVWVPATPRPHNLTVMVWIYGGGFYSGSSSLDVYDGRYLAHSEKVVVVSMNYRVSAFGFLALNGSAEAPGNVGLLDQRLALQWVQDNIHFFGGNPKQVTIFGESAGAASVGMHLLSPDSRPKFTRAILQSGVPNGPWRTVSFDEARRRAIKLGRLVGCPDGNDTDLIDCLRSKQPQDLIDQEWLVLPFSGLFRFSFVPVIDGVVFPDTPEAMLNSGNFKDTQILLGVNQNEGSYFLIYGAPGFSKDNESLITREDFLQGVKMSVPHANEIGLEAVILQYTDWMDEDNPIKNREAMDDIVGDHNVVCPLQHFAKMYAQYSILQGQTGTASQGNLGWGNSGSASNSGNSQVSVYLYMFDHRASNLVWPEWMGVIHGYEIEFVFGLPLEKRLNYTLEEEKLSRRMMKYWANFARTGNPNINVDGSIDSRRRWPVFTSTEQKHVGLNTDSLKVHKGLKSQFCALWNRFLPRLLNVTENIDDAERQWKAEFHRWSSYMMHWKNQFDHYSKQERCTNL

For `CN1CCC=C(c2ccc(C(F)(F)F)cc2)C1` [5a, 3-[4-(trifluoromethyl)phenyl]-1,2,5,6-tetrahydro-1-methylpyridine], the IC50 (Electric eel AChE; [1]) was 49.5 nM and the IC50 (Human Serum AChE) was 52 nM.

`CN1CCC=C(c2ccc(C#N)cc2)C1` [5b, 3-(4-cyanophenyl)-1,2,5,6-tetrahydro-1-methylpyridine] was tested, and the IC50 (Electric eel AChE; [1]) was 64 nM and the IC50 (Human Serum AChE) was 68 nM.

In the case of `CN1CCC=C(c2ccc(Cl)cc2)C1` [5d, 3-(4-chlorophenyl)-1,2,5,6-tetrahydro-1-methylpyridine], the IC50 (Electric eel AChE; [1]) was 806 nM and the IC50 (Human Serum AChE) was 784 nM.

`COc1ccc(C2=CCCN(C)C2)cc1` [5e, 3-(4-methoxyphenyl)-1,2,5,6-tetrahydro-1-methylpyridine] showed an IC50 (Human Serum AChE) of 2880 nM.

For `CN1CCC=C(c2c(Cl)cccc2Cl)C1` [5f, 3-(2,6-dichlorophenyl)-1,2,5,6-tetrahydro-1-methylpyridine], the IC50 (Electric eel AChE; [1]) was 678 nM and the IC50 (Human Serum AChE) was 729 nM.

For `CN1CCC=C(c2ccc(Oc3ccccc3)cc2)C1` [5g, 3-(4-phenoxyphenyl)-1,2,5,6-tetrahydro-1-methylpyridine], the IC50 (Electric eel AChE; [1]) was 1230 nM and the IC50 (Human Serum AChE) was 1350 nM.

In the case of `CN1CCC=C(c2ccc(-c3ccccc3)c(F)c2)C1` [5h, 3-(2-fluoro-biphenyl-4-yl)-1-methyl-1,2,5,6-tetrahydropyridine], the IC50 (Electric eel AChE; [1]) was 118 nM and the IC50 (Human Serum AChE) was 116 nM.

`CCOc1cccc(C2=CCCN(C)C2)c1` [5j, 3-(3-ethoxyphenyl)-1,2,5,6-tetrahydro-1-methylpyridine] showed an IC50 (Electric eel AChE; [1]) of 1230 nM and an IC50 (Human Serum AChE) of 1220 nM.

Work on `CN1CCC=C(c2cccc(Cl)c2F)C1` [5k, 3-(3-chloro-2-fluoro-phenyl)-1-methyl-1,2,5,6-tetrahydropyridine] yielded an IC50 (Electric eel AChE; [1]) of 182 nM and an IC50 (Human Serum AChE) of 170 nM.

With `CN(C)C(=O)Oc1cccc([N+](C)(C)C)c1` [Neostigmine, reference compound] the IC50 (Electric eel AChE; read-out: Electric eel AChE, IC50 nM; acetylthiocholine iodide substrate, phosphate buffer pH 8.0, 37 °C, 10 min preincubation) was 36.5 nM and the IC50 (Human Serum AChE) was 39.2 nM.

From publication PMC2709467, “Synthesis of Novel 3-Aryl-N-Methyl-1,2,5,6-Tetrahydropyridine Derivatives by Suzuki coupling: As Acetyl Cholinesterase Inhibitors” (The Open Medicinal Chemistry Journal, 2007)
